Drawing on patent US10259808B2 (Genentech, Inc., priority 2015, dated 2019), this text covers IC50 for 31 compounds.

This assay concerns the target T1, RORc ligand binding domain (Homo sapiens, UniProt P51449).
T1 sequence (P51449 269-508 limits assumed): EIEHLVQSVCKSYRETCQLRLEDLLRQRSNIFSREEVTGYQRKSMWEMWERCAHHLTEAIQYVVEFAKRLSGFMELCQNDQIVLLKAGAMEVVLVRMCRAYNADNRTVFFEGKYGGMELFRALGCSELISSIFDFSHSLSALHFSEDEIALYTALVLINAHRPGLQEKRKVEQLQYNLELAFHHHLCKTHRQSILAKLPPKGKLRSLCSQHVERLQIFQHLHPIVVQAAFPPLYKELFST
Nature of the assay: In vitro RORc ligand binding assay (25-[3H]hydroxycholesterol displacement).
In turn, `C[C@H]1CC[C@H](c2ccccc2)S(=O)(=O)N1Cc1cc(F)c([C@]2(NCC3(C)COC3)C[C@](C)(O)C2)cc1F` (racemic) [Example 187, 3-[2,5-difluoro-4-[[rac-(3S,6R)-3-methyl-1,1-dioxo-6-phenyl-thiazinan-2-yl]methyl]phenyl]-1-methyl-3-[(3-methyloxetan-3-yl)methylamino]cyclobutanol] had an IC50 of 0.01 µM.
`Cc1cc(NC(=O)C2(c3ccc(CN4[C@@H](C)CC[C@H](c5ccccc5)S4(=O)=O)c(F)c3)CCOCC2)n(C)n1` (stereo in doubt) [Example 14, N-(2,5-dimethylpyrazol-3-yl)-4-[3-fluoro-4-[[(3S,6R)-3-methyl-1,1-dioxo-6-phenyl-thiazinan-2-yl]methyl]phenyl]tetrahydropyran-4-carboxamide] yielded an IC50 of 0.0636 µM. This IC50 lies about 6.4-fold higher than the previous one.
The compound `C[C@H]1CC[C@H](c2ccccc2)S(=O)(=O)N1Cc1cc(F)c(C2(NC(=O)C3CCOC3)COC2)cc1F` (stereo in doubt) [Example 129, N-[3-[2,5-difluoro-4-[[(3S,6R)-3-methyl-1,1-dioxo-6-phenyl-thiazinan-2-yl]methyl]phenyl]oxetan-3-yl]tetrahydrofuran-3-carboxamide] had an IC50 of 0.0323 µM.
In turn, `Cc1n[nH]cc1C(=O)NC1(c2cc(F)c(CN3[C@@H](C)CC[C@H](c4ccccc4)S3(=O)=O)cc2F)COC1` (stereo in doubt) [Example 130, N-[3-[2,5-difluoro-4-[[(3S,6R)-3-methyl-1,1-dioxo-6-phenyl-thiazinan-2-yl]methyl]phenyl]oxetan-3-yl]-3-methyl-1H-pyrazole-4-carboxamide] came in with an IC50 of 0.126 µM.
Turning to `C[C@H]1CC[C@H](c2ccccc2)S(=O)(=O)N1Cc1cc(F)c(C2(NC(=O)c3cnn(C)c3)COC2)cc1F` (stereo in doubt) [Example 131, N-[3-[2,5-difluoro-4-[[(3S,6R)-3-methyl-1,1-dioxo-6-phenyl-thiazinan-2-yl]methyl]phenyl]oxetan-3-yl]-1-methyl-pyrazole-4-carboxamide], the IC50 was 0.208 µM.
For `C[C@H]1CC[C@H](c2ccccc2)S(=O)(=O)N1Cc1cc(F)c(C2(NC(=O)c3ncc[nH]3)COC2)cc1F` (stereo in doubt) [Example 133, N-[3-[2,5-difluoro-4-[[(3S,6R)-3-methyl-1,1-dioxo-6-phenyl-thiazinan-2-yl]methyl]phenyl]oxetan-3-yl]-1H-imidazole-2-carboxamide], the IC50 came out at 0.133 µM.
As to `C[C@H]1CC[C@H](c2ccccc2)S(=O)(=O)N1Cc1cc(F)c(C2(NC(=O)c3c[nH]cn3)COC2)cc1F` (stereo in doubt) [Example 134, N-[3-[2,5-difluoro-4-[[(3S,6R)-3-methyl-1,1-dioxo-6-phenyl-thiazinan-2-yl]methyl]phenyl]oxetan-3-yl]-1H-imidazole-4-carboxamide], the IC50 was 0.0507 µM.
Compound `C[C@H]1CC[C@H](c2ccccc2)S(=O)(=O)N1Cc1ccc(C2(C(=O)NC3COC3)CCOCC2)cc1F` [Example 1] showed an IC50 of 0.11 µM.
The figure for `Cc1nocc1CNC(=O)C1(c2ccc(CN3[C@@H](C)CC[C@H](c4ccccc4)S3(=O)=O)c(F)c2)CCOCC1` [Example 2] is 0.0638 µM.
In the case of `C[C@H]1CC[C@H](c2ccccc2)S(=O)(=O)N1Cc1ccc(C2(C(=O)NCc3ccno3)CCOCC2)cc1F` [Example 4] it was 0.0757 µM; in that of `C[C@H]1CC[C@H](c2ccccc2)S(=O)(=O)N1Cc1ccc(C2(C(=O)NCCN3CCC(O)CC3)CCOCC2)cc1F` [Example 5], 1.86 µM; in that of `C[C@H]1CC[C@H](c2ccccc2)S(=O)(=O)N1Cc1ccc(C2(C(=O)Nc3ncnn3C)CCOCC2)cc1F` [Example 7], 0.299 µM.
In the case of `C[C@H]1CC[C@H](c2ccccc2)S(=O)(=O)N1Cc1ccc(C2(C(=O)NC3CCOC3)CCOCC2)cc1F` (stereo partly drawn) [Example 8, 4-[3-fluoro-4-[[(3S,6R)-3-methyl-1,1-dioxo-6-phenyl-thiazinan-2-yl]methyl]phenyl]-N-tetrahydrofuran-3-yl-tetrahydropyran-4-carboxamide] it was 0.101 µM.
For the compound `C[C@H]1CC[C@H](c2ccccc2)S(=O)(=O)N1Cc1ccc(C2(C(=O)NC3(C)COC3)CCOCC2)cc1F` [Example 9, 4-[3-fluoro-4-[[(3S,6R)-3-methyl-1,1-dioxo-6-phenyl-thiazinan-2-yl]methyl]phenyl]-N-(3-methyloxetan-3-yl)tetrahydropyran-4-carboxamide], the IC50 turned out to be 0.144 µM.
In turn, `C[C@H]1CC[C@H](c2ccccc2)S(=O)(=O)N1Cc1ccc(C2(C(=O)NCc3cnccn3)CCOCC2)cc1F` [Example 10] showed an IC50 of 0.173 µM.
Compound `C[C@H]1CC[C@H](c2ccccc2)S(=O)(=O)N1Cc1ccc(C2(C(=O)NCC3CCOC3)CCOCC2)cc1F` (stereo partly shown) [Example 11] registered an IC50 of 0.161 µM.
The figure for `CCn1nccc1NC(=O)C1(c2ccc(CN3[C@@H](C)CC[C@H](c4ccccc4)S3(=O)=O)c(F)c2)CCOCC1` [Example 13] is 0.0632 µM; for `CNC(=O)c1nc(CNC(=O)C2(c3ccc(CN4[C@@H](C)CC[C@H](c5ccccc5)S4(=O)=O)c(F)c3)CCOCC2)no1` [Example 15, 3-[[[4-[3-fluoro-4-[[(3S,6R)-3-methyl-1,1-dioxo-6-phenyl-thiazinan-2-yl]methyl]phenyl]tetrahydropyran-4-carbonyl]amino]methyl]-N-methyl-1,2,4-oxadiazole-5-carboxamide] it is 0.0094 µM.
Compound `C[C@H]1CC[C@H](c2ccccc2)S(=O)(=O)N1Cc1ccc(C2(C(=O)NCc3cn[nH]c3)CCOCC2)cc1F` [Example 17, 4-[3-fluoro-4-[[(3S,6R)-3-methyl-1,1-dioxo-6-phenyl-thiazinan-2-yl]methyl]phenyl]-N-(1H-pyrazol-4-ylmethyl)tetrahydropyran-4-carboxamide] yielded a 50% inhibitory concentration (IC50) of 0.0325 µM. This IC50 is about 3.5-fold higher than that of the compound before.
`Cc1cc(N)n(C(=O)C2(c3ccc(CN4[C@@H](C)CC[C@H](c5ccccc5)S4(=O)=O)c(F)c3)CCOCC2)n1` [Example 19] returned an IC50 of 0.0123 µM. This IC50 lies about 2.6-fold lower than the previous one.
The figure for `Cc1cc(N)nn1C(=O)C1(c2ccc(CN3[C@@H](C)CC[C@H](c4ccccc4)S3(=O)=O)c(F)c2)CCOCC1` [Example 21, (3-amino-5-methyl-pyrazol-1-yl)-[4-[3-fluoro-4-[[(3S,6R)-3-methyl-1,1-dioxo-6-phenyl-thiazinan-2-yl]methyl]phenyl]tetrahydropyran-4-yl]methanone] is 0.0019 µM; for `C[C@H]1CC[C@H](c2ccccc2)S(=O)(=O)N1Cc1ccc(C2(c3nc(C4CC4)no3)CCOCC2)cc1F` [Example 23] it is 0.0143 µM; for `C[C@H]1CC[C@H](c2ccccc2)S(=O)(=O)N1Cc1ccc(C2(CN3CCOCC3)CCOCC2)cc1F` [Example 24] it is 0.0111 µM.
Compound `CC(=O)OCc1nc(C2(c3ccc(CN4[C@@H](C)CC[C@H](c5ccccc5)S4(=O)=O)c(F)c3)CCOCC2)no1` [Example 27, [3-[4-[3-fluoro-4-[[(3S,6R)-3-methyl-1,1-dioxo-6-phenyl-thiazinan-2-yl]methyl]phenyl]tetrahydropyran-4-yl]-1,2,4-oxadiazol-5-yl]methyl acetate] returned an IC50 of 0.109 µM.
`C[C@H]1CC[C@H](c2ccccc2)S(=O)(=O)N1Cc1ccc(C2(c3noc(CN(C)C)n3)CCOCC2)cc1F` [Example 28, 1-[3-[4-[3-fluoro-4-[[(3S,6R)-3-methyl-1,1-dioxo-6-phenyl-thiazinan-2-yl]methyl]phenyl]tetrahydropyran-4-yl]-1,2,4-oxadiazol-5-yl]-N,N-dimethyl-methanamine] had an IC50 of 0.465 µM.
In the case of `C[C@H]1CC[C@H](c2ccccc2)S(=O)(=O)N1Cc1ccc(C2(c3noc(CO)n3)CCOCC2)cc1F` [Example 29, [3-[4-[3-fluoro-4-[[(3S,6R)-3-methyl-1,1-dioxo-6-phenyl-thiazinan-2-yl]methyl]phenyl]tetrahydropyran-4-yl]-1,2,4-oxadiazol-5-yl]methanol] it was 0.0636 µM; in that of `C[C@H]1CC[C@H](c2ccccc2)S(=O)(=O)N1Cc1ccc(C2(c3noc(=O)[nH]3)CCOCC2)cc1F` [Example 30, 3-[4-[3-fluoro-4-[[(3S,6R)-3-methyl-1,1-dioxo-6-phenyl-thiazinan-2-yl]methyl]phenyl]tetrahydropyran-4-yl]-4H-1,2,4-oxadiazol-5-one], 0.245 µM.
As to `C[C@H]1CC[C@H](c2ccccc2)S(=O)(=O)N1Cc1cc(F)c(C2(C(=O)N3CC[C@@H](O)C3)CCOCC2)cc1F` [Example 32, [4-[2,5-difluoro-4-[[(3S,6R)-3-methyl-1,1-dioxo-6-phenyl-thiazinan-2-yl]methyl]phenyl]tetrahydropyran-4-yl]-[(3R)-3-hydroxypyrrolidin-1-yl]methanone], the IC50 was found to be 0.079 µM.
The figure for `C[C@H]1CC[C@H](c2ccccc2)S(=O)(=O)N1Cc1cc(F)c(C2(C(=O)NCc3ccnn3C)CCOCC2)cc1F` [Example 33, 4-[2,5-difluoro-4-[[(3S,6R)-3-methyl-1,1-dioxo-6-phenyl-thiazinan-2-yl]methyl]phenyl]-N-[(2-methylpyrazol-3-yl)methyl]tetrahydropyran-4-carboxamide] is 0.0234 µM.
In turn, `C[C@H]1CC[C@H](c2ccccc2)S(=O)(=O)N1Cc1cc(F)c(C2(C(=O)N3CC[C@H](O)C3)CCOCC2)cc1F` [Example 34, [4-[2,5-difluoro-4-[[(3S,6R)-3-methyl-1,1-dioxo-6-phenyl-thiazinan-2-yl]methyl]phenyl]tetrahydropyran-4-yl]-[(3S)-3-hydroxypyrrolidin-1-yl]methanone] returned an IC50 of 0.0985 µM.
`C[C@H]1CC[C@H](c2ccccc2)S(=O)(=O)N1Cc1cc(F)c(C2(C(=O)n3ccc(N)n3)CCOCC2)cc1F` [Example 35, (3-aminopyrazol-1-yl)-[4-[2,5-difluoro-4-[[(3S,6R)-3-methyl-1,1-dioxo-6-phenyl-thiazinan-2-yl]methyl]phenyl]tetrahydropyran-4-yl]methanone] yielded an IC50 of 0.01 µM. Against the preceding compound, the IC50 is about 9.8-fold lower.
